In publication PMC12524408 (International Journal of Molecular Sciences, 2025):

Assays:
[1] = system: DSS-induced colitis; experiment: Dose-dependent study of intravenous PEG-AM in DSS-induced colitis (Study No. P170454); type: in vivo, mouse; settings: 1, 5, 25 nmol/kg single i.v. one day before 3% DSS (MW 5000); vs vehicle; n = 10 per group
Experimental: We examined the effects of intravenous administration of PEG-AM on DSS-induced colitis, as per the experimental design in Figure 4a. PEG-AM was administered one day before DSS exposure to evaluate its prophylactic effect against colitis onset and progression.  Figure 4 Dose-dependent effects of intravenous PEG-AM administration in DSS-induced colitis (Study No. P170454). (a) Overview of the experimental design. Groups: vehicle (n = 10), PEG-AM 1 nmol/kg (n = 10), 5 nmol/kg (n = 10), 25 nmol/kg (n = 10). (b) Total inflammation scores on day 8. (c) Colon length. (d) Colon weight-to-length ratio. (e) PEG-AM plasma concentrations on day 8. To evaluate the pharmacological effects of PEG-AM, three animal studies were conducted by the LSI Medience Corporation following the Animal Welfare Act and institutional approval. Seven-week-old male C57BL/6J JCL mice (CLEA Japan, Inc., Tokyo, Japan) were used in all studies and were housed under pathogen-free conditions. Colitis was induced with 3% (w/v) DSS (MW 5000) in drinking water for seven days. PEG-AM (1.0, 5.0, and 25 nmol/kg) or saline (control) was administered intravenously one day before DSS treatment. Each group included 10 mice. Stool consistency, bleeding, and body weight were evaluated on days −1, 0, 3, 5, and 7. A total inflammation score was calculated. Mice were anesthetized with 3% isoflurane (Zoetis Japan, Tokyo, Japan), and the colon was excised on day 7.

[2] = system: DSS-induced colitis; experiment: Therapeutic effect of PEG-AM after onset of DSS colitis (Study No. P200487); type: in vivo, mouse; settings: vs control, n = 6
Experimental: DSS was administered for five days to induce colitis, followed by the administration of PEG-AM or saline on day 5. DSS was replaced with water on day 6 to evaluate recovery. […] (a) Overview of the experimental design. Groups: vehicle (n = 6), PEG-AM 25 nmol/kg (n = 6), 250 nmol/kg (n = 6). (b) Time course of total inflammation scores after PEG-AM administration. (c) Colon length, * p < 0.05, one-way ANOVA followed by Dunnett’s multiple-comparisons test. ns, not significant. (d) Colon weight-to-length ratio, * p < 0.05, one-way ANOVA followed by Dunnett’s multiple-comparisons test. ns, not significant. (e) PEG-AM plasma concentrations on day 12. (f–i) Fold changes in gene expression of RAMP1 (f), RAMP2 (g), RAMP3 (h), and CLR (i). To evaluate the pharmacological effects of PEG-AM, three animal studies were conducted by the LSI Medience Corporation following the Animal Welfare Act and institutional approval. Seven-week-old male C57BL/6J JCL mice (CLEA Japan, Inc., Tokyo, Japan) were used in all studies and were housed under pathogen-free conditions. Colitis was induced with 2% (w/v) DSS (MW 36,000–50,000) for five days. On day 5, the mice were assigned to three groups and intravenously administered one of PEG-AM (25 or 250 nmol/kg) or saline. On day 6, DSS was replaced with water. Clinical symptoms were evaluated on days 5, 8, 10, and 12. The inflammation scores were calculated. Colons were collected on day 12 under isoflurane anesthesia.

In the case of “40 kDa PEGylated adrenomedullin [PEG-AM]”, the Colon length [1] is reported as “comparable across all groups”, the “Colon weight per unit length” value [1] is reported as “no significant differences” and the “Total inflammation score on day 8” value [1] is reported as “no statistically significant differences”. The “Colon weight per unit length” value ([2]; 250 nmol/kg i.v. on day 5 after DSS onset, day 12, p = 0.039, Dunnett's test) was “significantly lower”, the “Total inflammation scores over time” value ([2]; 25 or 250 nmol/kg i.v. on day 5 after 2% DSS (MW 36,000-50,000) for five days, days 5-12) was “did not significantly alter” and the Colon length ([2]; i.v. on day 5 after DSS onset, day 12, p = 0.014, one-way ANOVA with Dunnett's test, dose group not given) was “significantly longer”.
